Source: US4018895A, “Aryloxyphenylpropylamines in treating depression” (Eli Lilly and Company, priority 1975, dated 1977)
Read-outs that look alike come from different tables or passages of the source.

Legend:
[1] = tested on: dopamine uptake by synaptosomes from rat brain; experiment: In vitro blockade of dopamine uptake by synaptosomes from rat brain; type: biochemical; conditions: dopamine 0.2 μM
Description: (§1) This blockade is shown both in vitro with radioactive labelled compounds to determine the amount of monoamine uptake by synaptosomes from rat brain, and in vivo by a variety of methods. Among the physiologically active monoamines whose uptake is blocked by the compounds of this invention are included serotonin, norepinephrine and dopamine (3,4-dihydroxyphenylethylamine). […] Tables 1 and 2 which follow set forth the results of some of the in vitro determinations of the blockage of monoamine uptake by the compounds of this invention. In the tables, column 1 gives the R substituent on the 3-phenylpropylamine and columns 2-4, the concentration in micrograms per ml. that blocks the uptake of a particular amine by 50 percent for the amines--norephinephrine, serotonin, and dopamine. At the head of each column is given the concentration of the particular monoamine used in the experiment.

[2] = tested on: norepinephrine uptake by synaptosomes from rat brain; experiment: In vitro blockade of norepinephrine uptake by synaptosomes from rat brain; type: biochemical; conditions: norepinephrine 0.48 μM
Description: as §1

[3] = tested on: serotonin uptake by synaptosomes from rat brain; experiment: In vitro blockade of serotonin uptake by synaptosomes from rat brain; type: biochemical; conditions: serotonin 0.1 μM
Description: as §1

[4] = tested on: hypothermia induced by the injection of apomorphine; experiment: Apomorphine hypothermia antagonism test; type: in vivo, mice; conditions: for Activity in antagonism of apomorphine hypothermia: in words
Method: The apomorphine hypothermia antagonism test is carried out as follows: mice are injected with a dose of apomorphine known to reduce body temperature approximately 4° C. […] The degree of antagonism is expressed as a percent reduction (as compared with controls) of the temperature decrease produced by the injection of the apomorphine. The reserpine hypothermia reversal test is carried out as follows: groups of mice are injected with reserpine and 16.5 hours later are injected intraperitoneally with graded doses of the drug, a different dose level being given to each group of mice. Temperatures are measured at 1 hour after injection of the drug under test and again the effectiveness of the drug is expressed as a percentage decrease in the hypothermia induced by the injection of reserpine as compared with the control group. In the tablets which follow, Table 4 gives the results in the apomorphine antagonism and reserpine reversal hypothermia tests for the secondary amines of this invention. In the table, the first column gives the substituent attached to the oxygen atom at the 3 position of the propylamine chain; columns 2 to 4 the percent antagonism against apomorphine hypothermia at dose levels of 0.3, 1 and 3 mg./kg. and columns 5-7 the percent reversal of reserpine hypothermia at the same dose levels.

[5] = tested on: hypothermia induced by the injection of reserpine; experiment: Reserpine hypothermia reversal test; type: in vivo, mice; conditions: for Activity in reversal of reserpine hypothermia: in words; for inhibition in vivo at 3 mg/kg / inhibition in vivo at 10 mg/kg / inhibition in vivo at 1 mg/kg / inhibition in vivo at 0.3 mg/kg: Mus musculus, ip, 1 h, Post-60 min., mice, read-out: Percent Antagonism Reserpine; for inhibition in vivo at 3 mg/kg: 3 mg./kg. intraperitoneally; for inhibition in vivo at 10 mg/kg: 10 mg./kg. intraperitoneally; for inhibition in vivo at 1 mg/kg: 1 mg./kg. intraperitoneally; for inhibition in vivo at 0.3 mg/kg: .3 mg./kg. intraperitoneally
Method: The apomorphine hypothermia antagonism test is carried out as follows: mice are injected with a dose of apomorphine known to reduce body temperature approximately 4° C. The compound under test is injected 1/2 hour before the injection of the apomorphine and the temperatures measured 1/2 hour after injection. The degree of antagonism is expressed as a percent reduction (as compared with controls) of the temperature decrease produced by the injection of the apomorphine. The reserpine hypothermia reversal test is carried out as follows: groups of mice are injected with reserpine and 16.5 hours later are injected intraperitoneally with graded doses of the drug, a different dose level being given to each group of mice. Temperatures are measured at 1 hour after injection of the drug under test and again the effectiveness of the drug is expressed as a percentage decrease in the hypothermia induced by the injection of reserpine as compared with the control group. In the tablets which follow, Table 4 gives the results in the apomorphine antagonism and reserpine reversal hypothermia tests for the secondary amines of this invention. In the table, the first column gives the substituent attached to the oxygen atom at the 3 position of the propylamine chain; columns 2 to 4 the percent antagonism against apomorphine hypothermia at dose levels of 0.3, 1 and 3 mg./kg. and columns 5-7 the percent reversal of reserpine hypothermia at the same dose levels.

[6] = Mus musculus, Table 5, dimethylamino compounds, Pre-30 min., mice, read-out: Percent Antagonism Apomorphine
[7] = Table 5, dimethylamino compounds
[8] = Mus musculus, Table 4, secondary amines, Pre-30 min., mice, read-out: Percent Antagonism Apomorphine

## Cc1cc(F)ccc1OC(CCN(C)C)c1ccccc1.O=C(O)C(=O)O (centres unmarked) [4-fluoro-o-tolyl, N,N-dimethyl 3-(p-fluoro-o-tolyloxy)-3-phenylpropylamine oxalate]
[1]; Table 1, scaffold drawing 3
  Concentration that blocks 50% of amine uptake, Dopamine: 40 mcq./ml.
[2]; Table 1, scaffold drawing 3
  Concentration that blocks 50% of amine uptake, Norepinephrine: 2.5 mcq./ml.
[3]; Table 1, scaffold drawing 3
  Concentration that blocks 50% of amine uptake, Serotonin: .6 mcq./ml.

## CNCCC=C1c2ccccc2CCc2ccccc21 [nortriptyline, reference compound]
[4]
  Activity in antagonism of apomorphine hypothermia: active
[5]
  Activity in reversal of reserpine hypothermia: active

## CCOc1ccccc1OC(CCN(C)C)c1ccccc1.O=C(O)C(=O)O (centres unmarked) [o-phenetyl, N,N-dimethyl 3-(o-ethoxyphenoxy)-3-phenylpropylamine oxalate]
[4]; [6]
  inhibition in vivo at 3 mg/kg: 13%
  inhibition in vivo at 10 mg/kg: 76%
[5]; [7]
  inhibition in vivo at 3 mg/kg: 16%
  inhibition in vivo at 10 mg/kg: 40%
[1]; Table 1, scaffold drawing 3
  Concentration that blocks 50% of amine uptake, Dopamine: > 100 mcq./ml.
[2]; Table 1, scaffold drawing 3
  Concentration that blocks 50% of amine uptake, Norepinephrine: 3 mcq./ml.
[3]; Table 1, scaffold drawing 3
  Concentration that blocks 50% of amine uptake, Serotonin: 6 mcq./ml.

## CN(C)CCC(Oc1cccc(Cl)c1)c1ccccc1 (centres unmarked) [m-chlorophenyl]
[4]; [6]
  inhibition in vivo at 1 mg/kg: 0%
  inhibition in vivo at 3 mg/kg: 13%
  inhibition in vivo at 10 mg/kg: 66%

## CN(C)CCC(Oc1ccccc1F)c1ccccc1 (centres unmarked) [o-fluorophenyl]
[4]; [6]
  inhibition in vivo at 1 mg/kg: -10%
  inhibition in vivo at 3 mg/kg: 11%
  inhibition in vivo at 10 mg/kg: 31%

## CN(C)CCC(Oc1ccccc1C(F)(F)F)c1ccccc1.Cc1ccc(S(=O)(=O)O)cc1 (centres unmarked) [o-trifluoromethylphenyl, N,N-dimethyl 3-(o-trifluoromethylphenoxy)-3-phenylpropylamine p-toluene-sulfonate]
[4]; [8]
  inhibition in vivo at 1 mg/kg: 13%
  inhibition in vivo at 3 mg/kg: 28%
[4]; [6]
  inhibition in vivo at 1 mg/kg: 21%
  inhibition in vivo at 3 mg/kg: 32%
  inhibition in vivo at 10 mg/kg: 55%
[5]; Table 4, secondary amines
  inhibition in vivo at 1 mg/kg: 9%
  inhibition in vivo at 3 mg/kg: 8%
[5]; [7]
  inhibition in vivo at 10 mg/kg: 10%
[1]; Table 1, scaffold drawing 3
  Concentration that blocks 50% of amine uptake, Dopamine: > 100 mcq./ml.
[1]; Table 2, scaffold drawing 4
  Concentration that blocks 50% of amine uptake, Dopamine: > 100 µg/mL
[2]; Table 1, scaffold drawing 3
  Concentration that blocks 50% of amine uptake, Norepinephrine: 70 mcq./ml.
[2]; Table 2, scaffold drawing 4
  Concentration that blocks 50% of amine uptake, Norepinephrine: 6.0 µg/mL
[3]; Table 1, scaffold drawing 3
  Concentration that blocks 50% of amine uptake, Serotonin: .16 mcq./ml.
[3]; Table 2, scaffold drawing 4
  Concentration that blocks 50% of amine uptake, Serotonin: 2.5 µg/mL

## CN(C)CCC(Oc1ccccc1C(C)(C)C)c1ccccc1.O=C(O)C(=O)O (centres unmarked) [o-t-butylphenyl, N,N-dimethyl 3-phenyl-3-(o-t-butylphenoxy)propylamine oxalate]
[1]; Table 1, scaffold drawing 3
  Concentration that blocks 50% of amine uptake, Dopamine: > 100 mcq./ml.
[2]; Table 1, scaffold drawing 3
  Concentration that blocks 50% of amine uptake, Norepinephrine: 1.5 mcq./ml.
[3]; Table 1, scaffold drawing 3
  Concentration that blocks 50% of amine uptake, Serotonin: 40 mcq./ml.

## CN(C)CCC(Oc1ccccc1Br)c1ccccc1.O=C(O)C(=O)O (centres unmarked) [o-bromophenyl, N,N-dimethyl 3-(o-bromophenoxy)-3-phenylpropylamine oxalate]
[4]; [6]
  inhibition in vivo at 1 mg/kg: 19%
  inhibition in vivo at 3 mg/kg: 40%
  inhibition in vivo at 10 mg/kg: 47%
[5]; [7]
  inhibition in vivo at 3 mg/kg: 18%
  inhibition in vivo at 10 mg/kg: 30%
[1]; Table 1, scaffold drawing 3
  Concentration that blocks 50% of amine uptake, Dopamine: 5 mcq./ml.
[3]; Table 1, scaffold drawing 3
  Concentration that blocks 50% of amine uptake, Serotonin: .1 mcq./ml.

## Cc1cccc(OC(CCN(C)C)c2ccccc2)c1.O=C(O)C(=O)O (centres unmarked) [m-tolyl, N,N-dimethyl 3-phenyl-3-(m-tolyloxy)propylamine oxalate]
[1]; Table 1, scaffold drawing 3
  Concentration that blocks 50% of amine uptake, Dopamine: > 0 mcq./ml.
[2]; Table 1, scaffold drawing 3
  Concentration that blocks 50% of amine uptake, Norepinephrine: 12 mcq./ml.
[3]; Table 1, scaffold drawing 3
  Concentration that blocks 50% of amine uptake, Serotonin: .7 mcq./ml.

## CN(C)CCC(Oc1ccc2ccccc2c1)c1ccccc1.O=C(O)C(=O)O (stereo not drawn) [β-naphthyl, N,N-dimethyl 3-(β-naphthyloxy)-3-phenylpropylamine oxalate]
[1]; Table 1, scaffold drawing 3
  Concentration that blocks 50% of amine uptake, Dopamine: 100 mcq./ml.
[2]; Table 1, scaffold drawing 3
  Concentration that blocks 50% of amine uptake, Norepinephrine: > 100 mcq./ml.
[3]; Table 1, scaffold drawing 3
  Concentration that blocks 50% of amine uptake, Serotonin: 1 mcq./ml.

## CN(C)CCC(Oc1ccc(F)cc1)c1ccccc1 (centres unmarked) [p-fluorophenyl]
[4]; [6]
  inhibition in vivo at 1 mg/kg: 26%
  inhibition in vivo at 3 mg/kg: 63%
  inhibition in vivo at 10 mg/kg: 116%
[5]; Table 4, secondary amines
  inhibition in vivo at 1 mg/kg: 39%
  inhibition in vivo at 3 mg/kg: 32%
  inhibition in vivo at 0.3 mg/kg: 7%
[5]; [7]
  inhibition in vivo at 1 mg/kg: 10%
  inhibition in vivo at 3 mg/kg: 24%
  inhibition in vivo at 10 mg/kg: 49%
  inhibition in vivo at 0.3 mg/kg: 14%

## CN(C)CCC(Oc1ccc(C(F)(F)F)cc1)c1ccccc1 (centres unmarked) [p-trifluoromethylphenyl]
[4]; [6]
  inhibition in vivo at 10 mg/kg: 24%

## CN(C)CCC(Oc1ccc(Cl)cc1)c1ccccc1 (centres unmarked) [p-chlorophenyl]
[4]; [8]
  inhibition in vivo at 1 mg/kg: 29%
  inhibition in vivo at 3 mg/kg: 37%
[4]; Mus musculus, Table 4, secondary amines, .3 mg./kg., Pre-30 min., mice, read-out: Percent Antagonism Apomorphine
  inhibition in vivo at 0.3 mg/kg: 32%
[4]; [6]
  inhibition in vivo at 1 mg/kg: 7%
  inhibition in vivo at 3 mg/kg: 43%
  inhibition in vivo at 10 mg/kg: 85%

## COc1cccc(OC(CCN(C)C)c2ccccc2)c1.O=C(O)C(=O)O (centres unmarked) [m-methoxyphenyl, N,N-dimethyl 3-phenyl-3-(m-methoxyphenoxy)propylamine oxalate]
[1]; Table 1, scaffold drawing 3
  Concentration that blocks 50% of amine uptake, Dopamine: .5 mcq./ml.
[2]; Table 1, scaffold drawing 3
  Concentration that blocks 50% of amine uptake, Norepinephrine: .2 mcq./ml.
[3]; Table 1, scaffold drawing 3
  Concentration that blocks 50% of amine uptake, Serotonin: .08 mcq./ml.

## COc1ccccc1OC(CCN(C)C)c1ccccc1 (centres unmarked) [o-anisyl]
[4]; [6]
  inhibition in vivo at 1 mg/kg: 11%
  inhibition in vivo at 3 mg/kg: 30%
  inhibition in vivo at 10 mg/kg: 61%

## CN(C)CCCN1c2ccccc2CCc2ccccc21 [imipramine, reference compound]
[4]; 10 mg./kg. dose, measured 60 minutes after injection of the apomorphine
  Reduction of apomorphine hypothermia: 100%
[4]
  Activity in antagonism of apomorphine hypothermia: active
[5]
  Activity in reversal of reserpine hypothermia: active

## COc1ccc(OC(CCN(C)C)c2ccccc2)cc1 (centres unmarked) [p-anisyl]
[4]; [6]
  inhibition in vivo at 10 mg/kg: 25%

## Cc1ccccc1OC(CCN(C)C)c1ccccc1 (centres unmarked) [o-tolyl]
[4]; [6]
  inhibition in vivo at 3 mg/kg: 11%
  inhibition in vivo at 10 mg/kg: 94%

## CN(C)CCC(Oc1cccc(C(F)(F)F)c1)c1ccccc1.O=C(O)C(=O)O (centres unmarked) [m-trifluoromethylphenyl, N,N-dimethyl 3-phenyl-3-(m-trifluoromethylphenoxy) propylamine oxalate]
[1]; Table 1, scaffold drawing 3
  Concentration that blocks 50% of amine uptake, Dopamine: > 100 mcq./ml.
[2]; Table 1, scaffold drawing 3
  Concentration that blocks 50% of amine uptake, Norepinephrine: 8 mcq./ml.
[3]; Table 1, scaffold drawing 3
  Concentration that blocks 50% of amine uptake, Serotonin: .18 mcq./ml.
